Assay results: patent US10294202B2, “Pyrrolidinones as herbicides” (FMC Corporation, priority 2013, dated 2019)

Legend:
[1] = test system: barnyardgrass; assay: Test A pre-/postemergence herbicide test; type: in vivo, Echinochloa crus-galli
Excerpt: (§1) Seeds of plant species selected from bamyardgrass (Echinochloa crus-galli), kochia (Kochia scoparia), ragweed (common ragweed, Ambrosia elatior), ryegrass, Italian (Italian ryegrass, Lolium multiflorum), crabgrass, large (large crabgrass Digitaria sanguinalis), giant foxtail (Setaria faberii), morningglory (Ipomoea spp.), pigweed (Amaranthus retroflexus), velvetleaf (Abutilon theophrasti), wheat (Triticum aestivum), and corn (Zea mays) were planted into a blend of loam soil and sand and treated preemergence with a directed soil spray using test chemicals formulated in a non-phytotoxic solvent mixture which included a surfactant. At the same time, plants selected from these crop and weed species and also blackgrass (Alopecurus myosuroides), and galium (catchweed bedstraw, Galium aparine) were planted in pots containing the same blend of loam soil and sand and treated with postemergence applications of test chemicals formulated in the same manner. Plants ranged in height from 2 to 10 cm and were in the one- to two-leaf stage for the postemergence treatment. Treated plants and untreated controls were maintained in a greenhouse for approximately 10 days, after which time all treated plants were compared to untreated controls and visually evaluated for injury. Plant response ratings, summarized in Table A, are based on a 0 to 100 scale where 0 is no effect and 100 is complete control. A dash (-) response means no test result.

[2] = test system: kochia; assay: Test A pre-/postemergence herbicide test; type: in vivo, Kochia scoparia; settings: for Plant response rating, Kochia: 0 to 100 scale
Excerpt: as §1

[3] = test system: ragweed; assay: Test A pre-/postemergence herbicide test; type: in vivo, Ambrosia elatior; settings: for Plant response rating, Ragweed: 0 to 100 scale
Excerpt: as §1

[4] = test system: ryegrass, Italian; assay: Test A pre-/postemergence herbicide test; type: in vivo, Lolium multiflorum; settings: for Plant response rating, Ryegrass, Italian: 0 to 100 scale
Excerpt: as §1

[5] = test system: giant foxtail; assay: Test A pre-/postemergence herbicide test; type: in vivo, Setaria faberii; settings: for Plant response rating, Foxtail, Giant: 0 to 100 scale
Summary of the method: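 Seeds in loam–sand blend received preemergence directed soil spray; separately, plants 2–10 cm at one- to two-leaf stage received postemergence spray, both with test chemicals in non-phytotoxic solvent with surfactant. After ~10 days in greenhouse, injury rated visually against untreated controls, 0 (no effect) to 100 (complete control).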

[6] = test system: pigweed; assay: Test A pre-/postemergence herbicide test; type: in vivo, Amaranthus retroflexus; settings: for Plant response rating, Pigweed: 0 to 100 scale
Excerpt: as §1

[7] = test system: wheat; assay: Test A pre-/postemergence herbicide test; type: in vivo, Triticum aestivum; settings: Postemergence; for Plant response rating, Wheat: 125 g ai/ha, 0 to 100 scale, 0 is no effect, 100 is complete control; for Wheat plant response rating (0 to 100 scale, 0 is no effect, 100 is complete control): 500 g ai/ha
Excerpt: as §1

[8] = test system: corn; assay: Test A pre-/postemergence herbicide test; type: in vivo, Zea mays; settings: Postemergence; for Plant response rating, Corn: 125 g ai/ha, 0 to 100 scale, 0 is no effect, 100 is complete control; for Corn plant response rating (0 to 100 scale, 0 is no effect, 100 is complete control): 500 g ai/ha
Excerpt: as §1

[9] = test system: blackgrass; assay: Test A postemergence herbicide test; type: in vivo, Alopecurus myosuroides; settings: for Plant response rating, Blackgrass: 125 g ai/ha, 0 to 100 scale, 0 is no effect, 100 is complete control; for Blackgrass plant response rating (0 to 100 scale, 0 is no effect, 100 is complete control): 500 g ai/ha
Excerpt: (§2) At the same time, plants selected from these crop and weed species and also blackgrass (Alopecurus myosuroides), and galium (catchweed bedstraw, Galium aparine) were planted in pots containing the same blend of loam soil and sand and treated with postemergence applications of test chemicals formulated in the same manner. Plants ranged in height from 2 to 10 cm and were in the one- to two-leaf stage for the postemergence treatment. Treated plants and untreated controls were maintained in a greenhouse for approximately 10 days, after which time all treated plants were compared to untreated controls and visually evaluated for injury. Plant response ratings, summarized in Table A, are based on a 0 to 100 scale where 0 is no effect and 100 is complete control. A dash (-) response means no test result.

[10] = test system: galium; assay: Test A postemergence herbicide test; type: in vivo, Galium aparine; settings: for Plant response rating, Galium: 125 g ai/ha, 0 to 100 scale, 0 is no effect, 100 is complete control; for Galium plant response rating (0 to 100 scale, 0 is no effect, 100 is complete control): 500 g ai/ha
Excerpt: as §2

[11] = 125 g ai/ha, visual rating, 0 to 100 scale, 0 no effect, 100 complete control, approximately 10 days, preemergence
[12] = Postemergence, 125 g ai/ha, 0 to 100 scale, 0 is no effect, 100 is complete control
[13] = preemergence, 500 g ai/ha, 0 to 100 scale (0 no effect, 100 complete control)
[14] = 125 g ai/ha, visual rating, 0 no effect, 100 complete control, approximately 10 days, preemergence
[15] = Postemergence, 125 g ai/ha, 0 is no effect, 100 is complete control
[16] = preemergence, 500 g ai/ha, 0 is no effect and 100 is complete control

Question: Which results are given for `O=C1NCC(c2cc(F)cc(F)c2)C1C(=O)Nc1cccc(F)c1F` (racemic) [Compound 157]?
Answer: Plant response rating, Barnyardgrass [1, 11]: 90; Plant response rating, Barnyardgrass [1, 12]: 70; Barnyardgrass plant response rating (0 to 100 scale, 0 is no effect, 100 is complete control) ([1]; Postemergence, 500 g ai/ha): 80; Plant response rating, Barnyardgrass [1, 13]: 90; Plant response rating, Kochia [2, 14]: 50; Plant response rating, Kochia [2, 15]: 20; Kochia plant response rating (0 to 100 scale, 0 is no effect, 100 is complete control) ([2]; Postemergence, 500 g ai/ha): 30; Plant response rating, Kochia [2, 16]: 70; Plant response rating, Ragweed [3, 14]: 30; Plant response rating, Ragweed [3, 15]: 20; Ragweed plant response rating (0 to 100 scale, 0 is no effect, 100 is complete control) ([3]; Postemergence, 500 g ai/ha): 40; Plant response rating, Ragweed [3, 16]: 50; Plant response rating, Ryegrass, Italian [4, 14]: 30; Plant response rating, Ryegrass, Italian [4, 15]: 30; Ryegrass, Italian plant response rating (0 to 100 scale, 0 is no effect, 100 is complete control) ([4]; Postemergence, 500 g ai/ha): 30; Plant response rating, Ryegrass, Italian [4, 16]: 60; Plant response rating, Foxtail, Giant [5, 14]: 90; Plant response rating, Foxtail, Giant [5, 15]: 80; Foxtail, Giant plant response rating (0 to 100 scale, 0 is no effect, 100 is complete control) ([5]; Postemergence, 500 g ai/ha): 80; Plant response rating, Foxtail, Giant ([5]; preemergence, 500 g ai/ha): 90; Plant response rating, Pigweed [6, 14]: 0; Plant response rating, Pigweed [6, 15]: 0; Pigweed plant response rating (0 to 100 scale, 0 is no effect, 100 is complete control) ([6]; Postemergence, 500 g ai/ha): 30; Plant response rating, Pigweed [6, 16]: 50; Plant response rating, Wheat [7]: 40; Wheat plant response rating (0 to 100 scale, 0 is no effect, 100 is complete control) [7]: 70; Plant response rating, Corn [8]: 50; Corn plant response rating (0 to 100 scale, 0 is no effect, 100 is complete control) [8]: 80; Plant response rating, Blackgrass [9]: 30; Blackgrass plant response rating (0 to 100 scale, 0 is no effect, 100 is complete control) [9]: 30; Plant response rating, Galium [10]: 40; Galium plant response rating (0 to 100 scale, 0 is no effect, 100 is complete control) [10]: 40

Question: What does the source list for `O=C1NCC(c2ccc(OC(F)(F)C(F)F)cc2)C1C(=O)Nc1cccc(F)c1F` (racemic) [Compound 172]?
Answer: Plant response rating, Barnyardgrass [1, 11]: 0; Plant response rating, Barnyardgrass [1, 12]: 0; Barnyardgrass plant response rating (0 to 100 scale, 0 is no effect, 100 is complete control) ([1]; Postemergence, 500 g ai/ha): 20; Plant response rating, Barnyardgrass [1, 13]: 20; Plant response rating, Kochia [2, 14]: 30; Plant response rating, Kochia [2, 15]: 0; Kochia plant response rating (0 to 100 scale, 0 is no effect, 100 is complete control) ([2]; Postemergence, 500 g ai/ha): 0; Plant response rating, Kochia [2, 16]: 30; Plant response rating, Ragweed [3, 14]: 0; Plant response rating, Ragweed [3, 15]: 0; Ragweed plant response rating (0 to 100 scale, 0 is no effect, 100 is complete control) ([3]; Postemergence, 500 g ai/ha): 0; Plant response rating, Ragweed [3, 16]: 0; Plant response rating, Ryegrass, Italian [4, 14]: 0; Plant response rating, Ryegrass, Italian [4, 15]: 0; Ryegrass, Italian plant response rating (0 to 100 scale, 0 is no effect, 100 is complete control) ([4]; Postemergence, 500 g ai/ha): 0; Plant response rating, Ryegrass, Italian [4, 16]: 0; Plant response rating, Foxtail, Giant [5, 14]: 20; Plant response rating, Foxtail, Giant [5, 15]: 0; Foxtail, Giant plant response rating (0 to 100 scale, 0 is no effect, 100 is complete control) ([5]; Postemergence, 500 g ai/ha): 30; Plant response rating, Foxtail, Giant ([5]; preemergence, 500 g ai/ha): 30; Plant response rating, Pigweed [6, 14]: 0; Plant response rating, Pigweed [6, 15]: 0; Pigweed plant response rating (0 to 100 scale, 0 is no effect, 100 is complete control) ([6]; Postemergence, 500 g ai/ha): 0; Plant response rating, Pigweed [6, 16]: 0; Plant response rating, Wheat [7]: 0; Wheat plant response rating (0 to 100 scale, 0 is no effect, 100 is complete control) [7]: 0; Plant response rating, Corn [8]: 0; Corn plant response rating (0 to 100 scale, 0 is no effect, 100 is complete control) [8]: 0; Plant response rating, Blackgrass [9]: 0; Blackgrass plant response rating (0 to 100 scale, 0 is no effect, 100 is complete control) [9]: 0; Plant response rating, Galium [10]: 0; Galium plant response rating (0 to 100 scale, 0 is no effect, 100 is complete control) [10]: 0
